Consider 15 molecules from patent US9845292B2 (Max-Planck-Gesellschaft zur Förderung der Wissenschaften …, priority 2013, dated 2017).

One assay has as its system N2a neuroblastoma cells. Nature of the assay: N2a cellular assay (neurite outgrowth). Format: cell-based. The settings on record: for optimal concentration for enhancement of neurite outgrowth: U-shaped dose-dependency, N2a-cells. As for the experimental part: At day one N2a cells were plated into 24-well plates with cover slips (pretreated with polylysine) at a density of 35,000 cells/well and cultured with DMEM (incl. FCS 10% and Pen/Strep 1%) for 24 h. Next, cells were transfected with 80 ng expression plasmids encoding Venus as well as 720 ng pRK5 (mock transfection) in a total volume of 500 μl starvation media containing different concentrations of compounds or DMSO for 36 h (media without FCS; induction of neurite outgrowth). Therefore media was removed and replaced by 400 μl DMEM (empty). Next an equivalent volume of plasmids were given to 50 μl OPTIMEM and incubated for 5 min at RT. Additionally 1.5 μl Lipofectamine 2000 was separately dissolved in 50 μl OPTIMEM. After 5 min both solutions (plasmids and Lipofactamine 2000 containing media) were combined and incubated again for another 20 min. After that 100 μl of this mixture was given to 400 μl media per well. (See also protocol of the provider—Life Technologies).
On the next day cells were washed with PBS and incubated for 30 min with 300 μl PFA (4%) and sucrose (5%) to fix cells. After fixation cells were washed three times, mounted onto microscope slides using 4 μl Vectashield (mounting media) and analyzed by fluorescence microscopy. Each bar represents the mean of the neurite length of 30-50 cells after the indicated treatment (FIGS. 1-2).

The target in another assay is T1, FKBP52 (Homo sapiens, UniProt Q02790).
T1 construct: Purified FK1-domains of FKBP51WT (4.5 nM) with F4 (3 nM), FKBP52WT (400 nM) with F2 (20 nM); implied by Ni-NTA purification) (N); made in house; host or cells: E. coli BL21(DE3)pLysS
T1 sequence (Q02790 50-138 limits assumed): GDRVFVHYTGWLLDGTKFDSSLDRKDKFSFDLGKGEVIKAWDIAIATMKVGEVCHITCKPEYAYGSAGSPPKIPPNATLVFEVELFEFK
As to the kind of experiment: Fluorescence polarization binding assay, FK1-domain of FKBP52WT with tracer F2 (selectivity FKBP51 vs. FKBP52). The settings on record: selectivity factor over FKBP52. In short, it runs like this: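 Compounds titrated against FK1 domain of FKBP52 WT with fluorescent tracer F2, in duplicate; competition curves fitted to four-parameter logistic for IC50. Ki derived from exact competitive-binding equation using tracer Kd; selectivity expressed as Ki(FKBP51)/Ki(FKBP52).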
Background: Polarisation of emitted light reports the rotation of a fluorescent probe.

For assay [1], the target named is T2, FKBP51 (Homo sapiens, UniProt Q13451).
T2 sequence (Q13451 42-130 limits assumed): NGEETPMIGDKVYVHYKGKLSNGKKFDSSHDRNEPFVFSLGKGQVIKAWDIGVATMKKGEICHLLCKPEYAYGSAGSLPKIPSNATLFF
As to the kind of experiment: Fluorescence polarization binding assay, FK1-domain of FKBP51WT with tracer F4. More on the design: Purified FK1-domains of FKBP51WT (4.5 nM) with F4 (3 nM), FKBP52WT (400 nM) with F2 (20 nM); made in house; host or cells: E. coli BL21(DE3)pLysS. Summed up:
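Competitive fluorescence polarization with tracer F4 and FKBP51 FK1 domain (wild type), compounds titrated by serial dilution from DMSO stock, run in duplicate. IC50 from four-parameter logistic fit; inhibition constants from an exact competitive-binding equation using tracer and inhibitor Kd values.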

Assay [2] concerns the target T2, FKBP51. The assay is described as above. The arrangement: Purified FK1-domains of FKBP51WT (4.5 nM) with F4 (3 nM), FKBP52WT (400 nM) with F2 (20 nM); implied by Ni-NTA purification) (N); made in house; host or cells: E. coli BL21(DE3)pLysS. To be noted: compounds B01-C25; read-out: Affinity(Ki) for FKBP51. As for the experimental part: The target protein was also diluted in this assay buffer at double the highest concentration required for the final sample. This protein stock was used for a 1:1 serial dilution.
The inventive compound was dissolved in DMSO to reach a 100-times concentrated stock solution. This was used for a 1:1 serial dilution in DMSO.
For FKBP12, −51, and −52 the binding assays were performed in duplicates in the plate format.
The competition curves were analyzed by using SigmaPlot9. Data were fitted to a four parameter logistic curve to deduce the IC50 values. […]
Inhibition constants were measured in a fluorescence polarization binding assay by titrating the compounds.

The mark [3] stands for this setting: FKBP52WT (400 nM) with F2 (20 nM), A series.
The mark [4] stands for this setting: compounds B01-C25, read-out: Affinity(Ki) for FKBP51.
[5] abbreviates: FK1-domain of FKBP51WT (4.5 nM) with F4 (3 nM), A series, read-out: Affinity(Ki) for FKBP51.

pKi: −log10 of the molar value. “Also recorded” adds a separate entry of the source. Where two headings read alike, the source gives them in different places.

The pKi is −log10 of the Ki, conventionally taken in molar units.

As for `C[C@]12CCC(=O)C=C1CC[C@@H]1[C@@H]2[C@@H](O)C[C@]2(C=O)[C@@H](C(=O)CO)CC[C@@H]12` [Aldosterone, reference compound], the “optimal concentration for enhancement of neurite outgrowth” value with N2a neuroblastoma cells is reported as 100 nM.
For the molecule `COc1ccc(CC[C@@H](OC(=O)[C@@H]2CCCCN2C(=O)[C@H](c2cc(OC)c(OC)c(OC)c2)C2CCCCC2)c2cccc(OCC(=O)O)c2)cc1OC` [Compound A17, 2-(3-((R)-1-(((S)-1-((S)-2-Cyclohexyl-2-(3,4,5-trimethoxyphenyl)acetyl)piperidine-2-carbonyl)oxy)-3-(3,4-dimethoxyphenyl)propyl)phenoxy)acetic acid], the “Ki(FKBP51)/Ki(FKBP52)” value on FKBP52 (setting [3]) is on record as “++++ (>5000 ++++)”. In addition, the “rescue of reduced neurite length triggered by Ru26988” value in the assay on N2a neuroblastoma cells (1 μM Ru26988, 10 nM A17, FIG. 2A, 2B) is on record as “rescues reduced neurite length”. In addition, the “protection of neurite outgrowth from the suppressing effect of high steroid concentrations” value with N2a neuroblastoma cells (1 μM aldosterone or 1 μM RU26988, FIG. 2A-2C) is recorded as “able to protect the neutrite outgrowth of N2a from the suppressing effect of high steroid concentrations”. Also, the “effect of high concentrations on neuronal differentiation” value with N2a neuroblastoma cells (FIG. 1A, 1D) is reported as “do not lead to reduction of the neuronal differentiation”. Moreover, the “rescue of reduction of neurite outgrowth triggered by aldosterone” value with N2a neuroblastoma cells (aldosterone 1 μM, FIG. 2B, 2C) is recorded as “reverts the reduction of neurite outgrowth”. Further, the “enhancement of neurite outgrowth of N2a cells” value in the assay on N2a neuroblastoma cells (compared to unselective FKBP ligand FK506, FIG. 1) is given as “stronger enhancement of neurite outgrowth; also recorded: promote neurite outgrowth in N2a cells more potently compared to FK506”. On FKBP51 [1], this molecule showed a pKi greater than 7.00.
With `C=CCOC(=O)[C@@H]1CCCCN1C(=O)[C@H](c1cc(OC)c(OC)c(OC)c1)C1CCCCC1` [Compound C17, (S)-allyl-1-((S)-2-cyclohexyl-2-(3,4,5-trimethoxyphenyl)acetyl)piperidine-2-carboxylate], the “Ki(FKBP51)/Ki(FKBP52)” value at FKBP52 (compounds B01-C25) was “++ (>50 ++)”. Moreover, the pKi at FKBP51 [1] (setting [4]) was 4.30 to 5.00.
On the same counts, the results for `COCCOC(=O)[C@@H]1CCCCN1C(=O)[C@H](c1cc(OC)c(OC)c(OC)c1)C1CCCCC1` [Compound C18, (S)-2-methoxyethyl-1-((S)-2-cyclohexyl-2-(3,4,5-trimethoxyphenyl)acetyl) piperidine-2-carboxylate] are “++ (>50 ++)” and 5.00 to 6.00.
Regarding `COc1cc([C@@H](C(=O)N2CCCC[C@H]2C(=O)OCCOCc2ccccc2)C2CCCCC2)cc(OC)c1OC` [Compound C19, (S)-2-(benzyloxy)ethyl-1-((S)-2-cyclohexyl-2-(3,4,5-trimethoxyphenyl)acetyl) piperidine-2-carboxylate], the “Ki(FKBP51)/Ki(FKBP52)” value at FKBP52 (compounds B01-C25) was “++ (>50 ++)”. Besides, the pKi at FKBP51 [1] (setting [4]) is 5.00 to 6.00.
Consider `COc1cc([C@@H](C(=O)N2CCCC[C@H]2C(=O)OCCO)C2CCCCC2)cc(OC)c1OC` [Compound C20, (S)-2-hydroxyethyl-1-((S)-2-cyclohexyl-2-(3,4,5-trimethoxyphenyl)acetyl)piperidine-2-carboxylate], for which, at FKBP52 (compounds B01-C25), the “Ki(FKBP51)/Ki(FKBP52)” value is reported as “+++ (>500 +++)”. The negative-log Ki (pKi) at FKBP51 [1] (setting [4]) is 5.00 to 6.00.
On the same counts, the results for `COc1cc([C@@H](C(=O)N2CCCC[C@H]2C(=O)OCCCOCc2ccccc2)C2CCCCC2)cc(OC)c1OC` [Compound C21, (S)-3-(benzyloxy)propyl-1-((S)-2-cyclohexyl-2-(3,4,5-trimethoxyphenyl)acetyl) piperidine-2-carboxylate] are “++ (>50 ++)” and 5.00 to 6.00.
As for `COc1cc([C@@H](C(=O)N2CCCC[C@H]2C(=O)OCCCO)C2CCCCC2)cc(OC)c1OC` [Compound C22], at FKBP52 (compounds B01-C25), the “Ki(FKBP51)/Ki(FKBP52)” value is listed as “+++ (>500 +++)”. Besides, the pKi on FKBP51 [2] is 5.00 to 6.00.
For `COCCCCOC(=O)[C@@H]1CCCCN1C(=O)[C@H](c1cc(OC)c(OC)c(OC)c1)C1CCCCC1` [Compound C23, (S)-4-methoxybutyl-1-((S)-2-cyclohexyl-2-(3,4,5-trimethoxyphenyl)acetyl) piperidine-2-carboxylate], the “Ki(FKBP51)/Ki(FKBP52)” value on FKBP52 (compounds B01-C25) is “+++ (>500 +++)”. The pKi at FKBP51 [1] (setting [4]) is 5.00 to 6.00.
On the same counts, the results for `COc1cc([C@@H](C(=O)N2CCCC[C@H]2C(=O)O[C@H](C)COCc2ccccc2)C2CCCCC2)cc(OC)c1OC` [Compound C24] are “+++ (>500 +++)” and 5.00 to 6.00.
Consider `COc1cc([C@@H](C(=O)N2CCCC[C@H]2C(=O)OC(C)CO)C2CCCCC2)cc(OC)c1OC` (some centres unmarked) [Compound C25], for which the “Ki(FKBP51)/Ki(FKBP52)” value on FKBP52 (compounds B01-C25) is “++ (>50 ++)”. Moreover, at FKBP51 [2], the pKi was 5.00 to 6.00.
With `C=CC[C@@H]1/C=C(\C)C[C@H](C)C[C@H](OC)[C@H]2O[C@@](O)(C(=O)C(=O)N3CCCC[C@H]3C(=O)O[C@H](/C(C)=C/[C@@H]3CC[C@@H](O)[C@H](OC)C3)[C@H](C)[C@@H](O)CC1=O)[C@H](C)C[C@@H]2OC` [FK506, reference compound], in the assay with N2a neuroblastoma cells (FIG. 1B), the “concentrations at which the neurite outgrowth stimulating effect is lost” value fell in the range of 300 to 1000 nM.
With `C=CC[C@H](C(=O)N1CCCC[C@H]1C(=O)O[C@H](CCc1ccc(OC)c(OC)c1)c1cccc(OCC(=O)O)c1)c1cc(OC)c(OC)c(OC)c1` [Reference A01, 2-(3-((R)-3-(3,4-Dimethoxyphenyl)-1-(((S)-1-((S)-2-(3,4,5-trimethoxyphenyl)pent-4-enoyl)piperidine-2-carbonyl)oxy)propyl)phenoxy)acetic acid], at FKBP52 (setting [3]), the “Ki(FKBP51)/Ki(FKBP52)” value was “not selective (<5 not selective)”. For the same molecule, at FKBP51 [1] (setting [5]), the pKi is 4.30 to 5.00.
`COc1ccc(CC[C@@H](OC(=O)[C@@H]2CCCCN2C(=O)[C@@H](CC2CC2)c2cc(OC)c(OC)c(OC)c2)c2cccc(OCC(=O)O)c2)cc1OC` [Reference A07, 2-(3-((R)-1-(((S)-1-((S)-3-cyclopropyl-2-(3,4,5-trimethoxyphenyl)propanoyl)piperidine-2-carbonyl)oxy)-3-(3,4-dimethoxyphenyl)propyl)phenoxy)acetic acid]: the “Ki(FKBP51)/Ki(FKBP52)” value on FKBP52 (setting [3]) was “not selective (<5 not selective)”. Moreover, at FKBP51 [1] (setting [5]), the pKi is 4.30 to 5.00.
In the case of `CC#C[C@]1(O)CC[C@H]2[C@@H]3C=CC4=CC(=O)C=C[C@]4(C)[C@H]3[C@@H](O)C[C@@]21C` [Ru26988, RU26988, reference compound], in the assay on N2a neuroblastoma cells, the “optimal concentration for enhancement of neurite outgrowth” value worked out at 100 nM.
